{
  "source": "patent US9428458B2",
  "about": "“Substituted pyridoxine-lactam carboxylate-salts” (ALCOBRA LTD., priority 2008, dated 2016)",
  "origin": "cited, not measured here",
  "settings": "ca. 900 mg daily dose administered intravenously",
  "data": [
    {"substance": "pyridoxine L-2-pyrrolidone-5-carboxylate [metadoxine]", "values": [
      {"measurement": "side effects associated with the use of metadoxine", "result": "nausea and vomiting"}
    ]}
  ]
}
